Results taken from patent publication US20250049741A1, “COMPOSITION FOR PREVENTING OR TREATING ALZHEIMER'S DISEASE COMPRISING PHOSPHOLIPASE C ACTIVATOR AS AN ACTIVE INGREDIENT” (Korea University Research and Business Foundation, priority 2021, published 2025).

Test system: PLCβ1
Test: Western blot of hippocampal PLCβ1 after stereotaxic drug injection in 5XFAD mice
Format: in vivo
Settings: m-3M3FBS (50 μM, 0.5 μl per site) injected into dorsal and ventral bilateral hippocampi; three days after injection
Description: To test the acute effect of AβO on hippocampal S-eCB mobilization, hippocampal slices from Sprague-Dawley rats (SD, 2 to 3 weeks old, […] Biolink, Co., Ltd., Korea) were used. Male and female rats were used in all in vitro experiments. To test the chronic effect of AβO on hippocampus-dependent memory impairments caused by amyloidosis, the 5XFAD mouse model (6 to 7 months old, #34840-JAX, Jackson Laboratory, USA), which is a mouse model of Alzheimer's disease that mimics AβO depositions, was used. C57BL/6 mice (6 to 7 months old, KOATECH, Korea) were used as wild type (WT) control mice for 5XFAD mice. Male 5XFAD and C57BL/6 mice were used for all in vivo behavioral experiments. The 5XFAD mouse genotypes were identified by polymerase chain reaction (PCR) using DNA extracted from the tails of the mice. All animal-related procedures followed the guidelines of the Institutional Animal Care and Use Committee of Korea University (guidelines for SD rats: KUIACUC-2017-103, guidelines for C57BL/6 and 5XFAD mice: KUIACUC-2019-0068). […] Immunoreactivity was confirmed with enhanced chemiluminescence (Bio-Rad, USA) using a Fluorchem E system (ProteinSimple, USA) and analyzed with ImageJ software. […]

Q: With `Cc1cc(C)c(S(=O)(=O)Nc2cccc(C(F)(F)F)c2)c(C)c1` [m-3M3FBS] as the compound, how does the “hippocampal PLCβ1 protein levels in 5XFAD mice” value read?
A: The value was “completely recovered”.
